These results are taken from publication PMC4178217, “Quinoline 3-sulfonamides inhibit lactate dehydrogenase A and reverse aerobic glycolysis in cancer cells” (Cancer & Metabolism, 2013).

Where two headings read alike, the source gives them in different places.

Test [1] concerns the target Cannabinoid receptor type 2 (Homo sapiens, UniProt P34972). Kind of test: Cannabinoid receptor type 2 AG. The following applies: agonist; read-out: pEC50 Cannabinoid receptor type 2 AG (converted). From the text:
(§1) ANT = antagonist (pIC50), AG = agonist (pEC50). pIC50 and pEC50 are the negative logarithms10 of IC50 and EC50, respectively. Click here for file

For test [2], the target named is Dopamin Receptor D2 (Homo sapiens, UniProt P14416). Nature of the test: Dopamin Receptor D2 AG. The following applies: agonist; read-out: pEC50 Dopamin Receptor D2 AG (converted).
Chain of Dopamin Receptor D2 (P14416 whole entry): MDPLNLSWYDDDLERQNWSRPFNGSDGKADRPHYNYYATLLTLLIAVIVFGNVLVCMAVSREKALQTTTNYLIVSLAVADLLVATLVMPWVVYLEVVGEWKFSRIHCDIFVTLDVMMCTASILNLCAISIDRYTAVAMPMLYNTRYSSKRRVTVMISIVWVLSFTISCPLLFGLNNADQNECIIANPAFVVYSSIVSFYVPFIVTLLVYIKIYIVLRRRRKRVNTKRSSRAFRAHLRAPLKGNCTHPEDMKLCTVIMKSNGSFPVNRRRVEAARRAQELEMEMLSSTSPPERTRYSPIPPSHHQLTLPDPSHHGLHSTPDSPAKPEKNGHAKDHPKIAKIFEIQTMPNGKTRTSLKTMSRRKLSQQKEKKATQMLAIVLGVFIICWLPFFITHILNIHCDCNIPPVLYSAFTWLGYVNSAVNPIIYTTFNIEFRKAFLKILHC
Excerpt: as §1

Test [3] concerns the target Lymphocyte-specific Tyrosine Kinase (Homo sapiens, UniProt P06239). Nature of the test: Lymphocyte-specific Tyrosine Kinase ANT. It is filed as biochemical. The following applies: antagonist; read-out: pIC50 Lymphocyte-specific Tyrosine Kinase ANT (converted).
Excerpt: as §1

Test [4] deals with T1, Muscarinic Receptor M1 (Homo sapiens, UniProt P11229).
T1 sequence (P11229 1-460): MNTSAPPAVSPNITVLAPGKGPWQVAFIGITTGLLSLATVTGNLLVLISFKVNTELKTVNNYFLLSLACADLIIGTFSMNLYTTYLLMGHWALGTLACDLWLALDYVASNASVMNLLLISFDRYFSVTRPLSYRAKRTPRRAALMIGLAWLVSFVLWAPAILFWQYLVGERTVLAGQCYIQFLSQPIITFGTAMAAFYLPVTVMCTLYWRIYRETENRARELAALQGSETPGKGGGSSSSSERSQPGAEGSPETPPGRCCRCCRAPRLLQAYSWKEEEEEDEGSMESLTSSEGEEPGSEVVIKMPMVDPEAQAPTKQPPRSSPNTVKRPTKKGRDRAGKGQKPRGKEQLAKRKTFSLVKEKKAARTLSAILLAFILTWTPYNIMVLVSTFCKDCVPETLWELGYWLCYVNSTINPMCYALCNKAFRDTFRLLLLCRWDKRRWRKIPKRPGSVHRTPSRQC
Kind of test: Muscarinic Receptor M1 AG. The settings on record: agonist; read-out: pEC50 Muscarinic Receptor M1 AG (converted).
Excerpt: as §1

Test [5] has as its target T1, Muscarinic Receptor M1. Nature of the test: Muscarinic Receptor M1 ANT. The settings on record: antagonist; read-out: pIC50 Muscarinic Receptor M1 ANT (converted).
Excerpt: as §1

Test [6] has as its target T2, Nicotinic Ach Receptor A1 (Homo sapiens, UniProt P02708+P07510+Q07001). Nature of the test: Nicotinic Ach Receptor A1 AG.
Excerpt: as §1

For test [7], the target named is T2, Nicotinic Ach Receptor A1. Nature of the test: Nicotinic Ach Receptor A1 ANT.
Excerpt: as §1

Test [8] concerns the target Opioid Receptor k (Homo sapiens, UniProt P41145). Kind of test: Opioid Receptor k AG. The settings on record: agonist; read-out: pEC50 Opioid Receptor k AG (converted).
Excerpt: as §1

Test [9] addresses Phosphoinositide 3-kinase g (Homo sapiens, UniProt P48736). Nature of the test: Phosphoinositide 3-kinase g ANT. It is filed as biochemical. The following applies: antagonist; read-out: pIC50 Phosphoinositide 3-kinase g ANT (converted).
Excerpt: as §1

The target of test [10] is Potassium Channel KCNQ1 (Homo sapiens, UniProt P51787). Nature of the test: Potassium Channel KCNQ1 ANT. The settings on record: antagonist; read-out: pIC50 Potassium Channel KCNQ1 ANT (converted).
Excerpt: as §1

The target of test [11] is Serotonin Receptor 5H1. Kind of test: Serotonin Receptor 5H1 ANT. The following applies: antagonist.
Excerpt: as §1

In test [12] the target is Serotonin Receptor 5HT1B (Homo sapiens, UniProt P28222). Nature of the test: Serotonin Receptor 5HT1B AG. The following applies: agonist; read-out: pEC50 Serotonin Receptor 5HT1B AG (converted).
Chain of Serotonin Receptor 5HT1B (P28222 whole entry): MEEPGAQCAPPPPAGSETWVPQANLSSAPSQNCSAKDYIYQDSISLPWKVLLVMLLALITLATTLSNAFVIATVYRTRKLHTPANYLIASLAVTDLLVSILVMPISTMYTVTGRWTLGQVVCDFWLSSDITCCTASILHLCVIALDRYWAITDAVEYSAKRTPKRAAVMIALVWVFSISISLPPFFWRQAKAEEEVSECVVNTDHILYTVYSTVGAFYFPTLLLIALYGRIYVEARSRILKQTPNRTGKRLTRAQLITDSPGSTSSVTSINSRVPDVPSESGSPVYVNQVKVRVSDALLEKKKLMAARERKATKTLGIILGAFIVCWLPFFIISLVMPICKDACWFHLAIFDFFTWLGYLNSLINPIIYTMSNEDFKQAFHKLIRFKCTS
Excerpt: as §1

Test [13] deals with Serotonin Receptor 5HT2A (Homo sapiens, UniProt P28223). Kind of test: Serotonin Receptor 5HT2A ANT. The settings on record: antagonist; read-out: pIC50 Serotonin Receptor 5HT2A ANT (converted).
Chain of Serotonin Receptor 5HT2A (P28223 whole entry): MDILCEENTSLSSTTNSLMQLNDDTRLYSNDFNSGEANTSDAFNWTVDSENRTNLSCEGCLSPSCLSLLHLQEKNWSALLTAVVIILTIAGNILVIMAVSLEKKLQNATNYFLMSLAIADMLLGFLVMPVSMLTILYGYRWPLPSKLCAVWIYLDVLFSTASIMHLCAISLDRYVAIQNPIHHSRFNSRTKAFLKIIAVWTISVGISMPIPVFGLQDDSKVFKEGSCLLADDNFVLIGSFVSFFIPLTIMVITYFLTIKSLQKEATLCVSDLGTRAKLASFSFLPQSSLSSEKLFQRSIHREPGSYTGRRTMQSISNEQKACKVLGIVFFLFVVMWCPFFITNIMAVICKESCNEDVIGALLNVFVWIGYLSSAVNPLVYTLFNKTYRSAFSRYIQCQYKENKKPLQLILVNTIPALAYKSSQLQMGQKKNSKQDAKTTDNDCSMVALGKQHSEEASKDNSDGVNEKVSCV
Excerpt: as §1

Test [14] concerns the target T3, Serotonin Receptor 5HT2C (Homo sapiens, UniProt P28335).
T3 sequence (P28335 33-458): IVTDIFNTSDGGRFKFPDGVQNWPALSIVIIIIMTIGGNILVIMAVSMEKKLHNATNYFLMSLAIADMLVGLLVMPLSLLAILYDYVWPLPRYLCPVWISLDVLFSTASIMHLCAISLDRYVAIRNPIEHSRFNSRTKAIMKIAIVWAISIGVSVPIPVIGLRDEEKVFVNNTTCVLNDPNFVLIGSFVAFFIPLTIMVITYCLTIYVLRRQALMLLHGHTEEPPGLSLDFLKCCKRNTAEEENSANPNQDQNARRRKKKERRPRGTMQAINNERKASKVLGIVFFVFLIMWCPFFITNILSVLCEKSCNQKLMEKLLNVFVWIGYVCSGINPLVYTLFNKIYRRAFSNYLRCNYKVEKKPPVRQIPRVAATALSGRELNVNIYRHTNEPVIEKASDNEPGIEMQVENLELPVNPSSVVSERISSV
Kind of test: Serotonin Receptor 5HT2C ANT. The settings on record: antagonist; read-out: pIC50 Serotonin Receptor 5HT2C ANT (converted).
Excerpt: as §1

Test [15] addresses T4, Serotonin Receptor 5HT3 (Homo sapiens, UniProt P46098).
T4 sequence (P46098 24-478): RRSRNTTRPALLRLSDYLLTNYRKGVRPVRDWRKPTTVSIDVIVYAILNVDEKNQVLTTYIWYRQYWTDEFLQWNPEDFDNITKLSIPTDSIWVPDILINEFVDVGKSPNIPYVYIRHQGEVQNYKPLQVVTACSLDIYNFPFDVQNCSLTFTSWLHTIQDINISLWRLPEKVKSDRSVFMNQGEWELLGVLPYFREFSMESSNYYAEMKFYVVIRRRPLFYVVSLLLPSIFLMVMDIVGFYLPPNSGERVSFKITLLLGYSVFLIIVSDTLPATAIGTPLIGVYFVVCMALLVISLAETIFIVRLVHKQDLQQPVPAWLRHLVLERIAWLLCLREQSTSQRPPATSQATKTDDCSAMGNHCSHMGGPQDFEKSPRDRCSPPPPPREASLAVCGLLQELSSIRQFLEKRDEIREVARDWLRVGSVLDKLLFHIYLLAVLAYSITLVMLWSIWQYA
Nature of the test: Serotonin Receptor 5HT3 ANT. The settings on record: antagonist; read-out: pIC50 Serotonin Receptor 5HT3 ANT (converted).
Excerpt: as §1

Test [16] addresses Sodium Channel NaV 1.5 (Homo sapiens, UniProt Q14524). Kind of test: Sodium Channel NaV 1.5 ANT. The settings on record: antagonist; read-out: pIC50 Sodium Channel NaV 1.5 ANT (converted).
Excerpt: as §1

Test [17] concerns Snu398 cells. Kind of test: Lactate production assay, Snu398 (RapidFire-MS). The settings on record: Homo sapiens, SNU-398, read-out: lactate production EC50.

T2 sequence (P02708 21-457): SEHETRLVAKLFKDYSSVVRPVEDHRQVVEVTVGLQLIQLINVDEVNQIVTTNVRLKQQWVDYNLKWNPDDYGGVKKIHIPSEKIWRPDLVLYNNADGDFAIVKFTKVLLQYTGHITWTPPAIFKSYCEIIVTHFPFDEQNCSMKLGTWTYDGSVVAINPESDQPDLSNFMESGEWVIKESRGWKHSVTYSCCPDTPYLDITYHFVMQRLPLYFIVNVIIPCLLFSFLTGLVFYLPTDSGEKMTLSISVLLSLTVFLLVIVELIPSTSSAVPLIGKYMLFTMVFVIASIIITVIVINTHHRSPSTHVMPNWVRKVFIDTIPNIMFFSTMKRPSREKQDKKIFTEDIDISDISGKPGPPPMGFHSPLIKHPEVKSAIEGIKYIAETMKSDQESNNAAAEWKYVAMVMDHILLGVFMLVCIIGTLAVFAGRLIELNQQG
T2 sequence (P11230 24-501 partner): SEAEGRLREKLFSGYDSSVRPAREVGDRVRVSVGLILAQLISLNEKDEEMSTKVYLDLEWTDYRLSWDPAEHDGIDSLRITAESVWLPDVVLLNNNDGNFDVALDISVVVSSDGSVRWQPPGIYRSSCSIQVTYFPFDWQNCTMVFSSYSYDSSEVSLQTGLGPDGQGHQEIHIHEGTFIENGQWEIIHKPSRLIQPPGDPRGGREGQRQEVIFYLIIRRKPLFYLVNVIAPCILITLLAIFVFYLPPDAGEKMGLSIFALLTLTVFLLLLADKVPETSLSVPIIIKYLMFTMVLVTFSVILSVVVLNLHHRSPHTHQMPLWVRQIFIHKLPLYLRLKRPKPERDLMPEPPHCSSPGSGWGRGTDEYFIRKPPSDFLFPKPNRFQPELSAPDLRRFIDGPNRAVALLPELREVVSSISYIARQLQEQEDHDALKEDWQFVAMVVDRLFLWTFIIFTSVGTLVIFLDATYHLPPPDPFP
T2 sequence (Q07001 22-517): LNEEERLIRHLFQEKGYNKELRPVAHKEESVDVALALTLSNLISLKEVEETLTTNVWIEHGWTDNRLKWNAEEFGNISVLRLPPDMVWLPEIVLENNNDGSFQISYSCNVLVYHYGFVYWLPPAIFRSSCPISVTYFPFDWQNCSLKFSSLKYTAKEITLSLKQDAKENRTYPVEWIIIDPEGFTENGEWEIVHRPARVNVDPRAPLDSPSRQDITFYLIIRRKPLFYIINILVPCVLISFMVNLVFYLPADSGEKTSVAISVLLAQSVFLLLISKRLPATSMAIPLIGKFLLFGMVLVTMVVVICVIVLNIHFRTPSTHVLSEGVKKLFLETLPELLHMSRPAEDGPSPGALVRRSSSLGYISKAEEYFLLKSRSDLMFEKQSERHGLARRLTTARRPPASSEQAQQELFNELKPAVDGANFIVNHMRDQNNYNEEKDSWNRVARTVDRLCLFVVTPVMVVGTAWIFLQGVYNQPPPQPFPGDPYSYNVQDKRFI
T2 sequence (P07510 23-517): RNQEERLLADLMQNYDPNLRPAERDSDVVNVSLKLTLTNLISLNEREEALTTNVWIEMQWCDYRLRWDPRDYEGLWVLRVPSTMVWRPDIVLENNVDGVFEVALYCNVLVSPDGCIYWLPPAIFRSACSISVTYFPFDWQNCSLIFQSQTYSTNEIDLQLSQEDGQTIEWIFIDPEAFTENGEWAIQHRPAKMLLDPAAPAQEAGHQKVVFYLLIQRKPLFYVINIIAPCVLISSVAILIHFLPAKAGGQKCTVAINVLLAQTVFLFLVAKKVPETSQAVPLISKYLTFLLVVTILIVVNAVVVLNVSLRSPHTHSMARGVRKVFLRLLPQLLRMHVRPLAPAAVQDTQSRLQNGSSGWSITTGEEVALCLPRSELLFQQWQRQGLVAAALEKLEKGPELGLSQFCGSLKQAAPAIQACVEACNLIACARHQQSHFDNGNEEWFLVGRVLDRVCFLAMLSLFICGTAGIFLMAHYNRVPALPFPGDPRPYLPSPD
Chain of Lymphocyte-specific Tyrosine Kinase (P06239 whole entry): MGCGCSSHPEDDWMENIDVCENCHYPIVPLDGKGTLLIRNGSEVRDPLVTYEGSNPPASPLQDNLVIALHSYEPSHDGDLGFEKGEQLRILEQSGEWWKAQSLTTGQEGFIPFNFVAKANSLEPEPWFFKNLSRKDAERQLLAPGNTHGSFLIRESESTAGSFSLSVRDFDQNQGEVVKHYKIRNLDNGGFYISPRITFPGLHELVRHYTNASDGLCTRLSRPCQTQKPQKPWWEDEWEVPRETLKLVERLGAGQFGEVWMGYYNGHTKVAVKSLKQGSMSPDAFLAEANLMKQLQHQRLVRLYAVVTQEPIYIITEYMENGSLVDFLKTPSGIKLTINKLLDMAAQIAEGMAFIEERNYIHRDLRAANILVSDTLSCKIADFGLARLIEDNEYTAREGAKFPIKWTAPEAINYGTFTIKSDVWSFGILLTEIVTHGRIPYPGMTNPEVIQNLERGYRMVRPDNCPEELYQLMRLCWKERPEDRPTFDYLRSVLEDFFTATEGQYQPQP
Chain of Phosphoinositide 3-kinase g (P48736 whole entry): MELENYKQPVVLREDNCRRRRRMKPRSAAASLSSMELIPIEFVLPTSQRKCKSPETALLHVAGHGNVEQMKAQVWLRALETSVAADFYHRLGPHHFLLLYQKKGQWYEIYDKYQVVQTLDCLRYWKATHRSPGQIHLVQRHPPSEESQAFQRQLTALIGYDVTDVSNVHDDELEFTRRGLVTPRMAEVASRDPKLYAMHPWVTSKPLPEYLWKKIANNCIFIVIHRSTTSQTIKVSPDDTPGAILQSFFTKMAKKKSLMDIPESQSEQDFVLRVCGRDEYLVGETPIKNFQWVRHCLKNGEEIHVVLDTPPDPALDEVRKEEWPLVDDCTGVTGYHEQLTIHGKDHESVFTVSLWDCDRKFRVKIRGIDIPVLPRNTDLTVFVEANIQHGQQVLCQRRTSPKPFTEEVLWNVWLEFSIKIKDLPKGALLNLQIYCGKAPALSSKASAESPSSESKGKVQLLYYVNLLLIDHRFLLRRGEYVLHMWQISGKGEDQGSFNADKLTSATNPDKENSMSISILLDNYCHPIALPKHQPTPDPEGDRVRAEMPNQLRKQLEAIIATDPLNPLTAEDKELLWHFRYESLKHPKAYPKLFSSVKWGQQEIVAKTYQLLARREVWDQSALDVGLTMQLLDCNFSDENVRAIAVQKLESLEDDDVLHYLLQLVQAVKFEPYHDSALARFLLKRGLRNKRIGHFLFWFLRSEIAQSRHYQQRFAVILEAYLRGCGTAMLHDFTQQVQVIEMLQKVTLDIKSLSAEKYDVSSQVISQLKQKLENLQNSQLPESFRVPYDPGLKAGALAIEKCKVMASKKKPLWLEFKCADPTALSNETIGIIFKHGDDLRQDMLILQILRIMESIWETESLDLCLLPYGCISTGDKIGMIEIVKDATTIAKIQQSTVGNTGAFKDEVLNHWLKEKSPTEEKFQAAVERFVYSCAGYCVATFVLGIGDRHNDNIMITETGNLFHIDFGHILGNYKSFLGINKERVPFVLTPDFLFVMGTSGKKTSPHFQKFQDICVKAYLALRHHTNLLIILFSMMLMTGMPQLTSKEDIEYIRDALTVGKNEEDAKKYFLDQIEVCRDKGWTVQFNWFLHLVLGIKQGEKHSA

With `COc1ncc(-c2ccc3c(Nc4cc(C(=O)O)cc(C5CCCC5)c4)c(S(=O)(=O)NC4CC4)cnc3c2)c(OC)n1` [Compound 2], the EC50 in test [1] was 31.6 µM; in test [2] it was 100 µM; in test [4] it was 15.8 µM; in test [6] (agonist, read-out: pEC50 Nicotinic Ach Receptor A1 AG (converted)), 50.1 µM; in test [8], 100 µM; in test [12], 31.6 µM. In addition, the EC50 in test [17] was 0.6 ± 0.2 µM. Also, the IC50 in [3] is 31.6 µM; in [5], 15.8 µM; in test [7] (antagonist, read-out: pIC50 Nicotinic Ach Receptor A1 ANT (converted)), 15.8 µM; in test [9], 31.6 µM; in test [10], 25.1 µM; in [13], 31.6 µM. In addition, the figures for the IC50 in test [14], in test [15] and in [16] were 39.8 µM, 12.6 µM and 39.8 µM, respectively. Moreover, the “pIC50 Serotonin Receptor 5H1 ANT” value in test [11] stood at 4.4.

As for `COc1ncc(-c2ccc3c(Nc4cc(Oc5cc(F)cc(F)c5)cc(C(=O)O)c4)c(S(=O)(=O)NC4CC4)cnc3c2)c(OC)n1` [Compound 1], the EC50 in [1] was 31.6 µM; in test [2], 100 µM; in [4] it was 15.8 µM; in test [6], 50.1 µM; in [8], 100 µM; in test [12] it was 31.6 µM. The EC50 in test [17] stood at 0.4 ± 0.1 µM. Moreover, the IC50 was 31.6 µM in [3]; 15.8 µM in test [5]; 50.1 µM in [7]; 31.6 µM in test [9]; 25.1 µM in test [10]; 39.8 µM in test [13]. The IC50 in test [14] was 39.8 µM; in [15], 50.1 µM; in test [16] it was 100 µM. Further, the “pIC50 Serotonin Receptor 5H1 ANT” value in test [11] is listed as 4.7.
